Data taken from paper PMC12439141, “Self-Assembling Hydrogels of Naproxen-Conjugated Peptides for Osteoarthritis Treatment” (Theranostics, 2025).

Key:
[1] = test system: LPS-stimulated RAW264.7 cells; test: COX-2 and pro-inflammatory factor expression (qRT-PCR, immunofluorescence); type: cell-based, mouse; conditions: RAW264.7, 1 µg/mL LPS, 400 µM; 6 h, 12 h (PCR), 12 h or 24 h (immunofluorescence)
Procedure: After treatment, cells were harvested and total RNA was extracted using a total RNA purification kit (SparkJade, China), and cDNA was obtained from total RNA by a reverse transcription kit (SparkJade). Finally, qRT-PCR was performed using SYBR Green qPCR premix (SparkJade) on QuantGene 9600 real-time PCR (Bioer, Hangzhou, China). 2 Calculation of Relative Gene Expression-ΔΔCT method was used, and GAPDH was used as an internal reference gene.
Immunofluorescence staining was performed following a general procedure. After treatment, cells were fixed with 4% paraformaldehyde for 20 min, and permeabilized in 0.5% Triton X-100 for 5 min. 10% goat serum was used to block non-specific binding. Cells were then incubated with primary antibodies overnight. Then cells were incubated with fluorescently labeled secondary antibody for 1 h. […] For assessing RAW264.7 macrophage polarization, permeabilization procedure is not needed; anti-CD86 and anti-CD163 primary antibodies were used for identifying M1 macrophage or M2 macrophage, respectively. Primary antibodies included: anti-CD86 (1:300), anti-CD163 (1:300), anti-COX2 (1:300) and anti-COL2 (1:300). Cy3 or FITC labeled secondary antibodies were used for fluorescent imaging.

[2] = test system: OA rat model; test: Footprint gait analysis in MIA-induced OA rats; type: in vivo, SD rats; conditions: IA injection, 100 mg/kg, 2 weeks
Procedure: The OA model was induced by local injection of 50 µL/1mg sodium iodoacetate (MIA) into the joint cavity of each rat. Rats injected with saline were treated as the sham group (n = 6). […] Each group contained 6 rats. 50 µL drugs were injected locally at day 0 and day 14, respectively. After 14 days of treatment, the rats were examined by indentation-collecting gait analysis, after which the rats were euthanized with isoflurane, and the knee joints were sampled for gross morphological observation. After 28 days of treatment, sampling was performed for micro-CT analysis, histological staining and immunohistochemistry.
The cardboard is laid flat on the floor. Both forelimbs of the rats were covered with blue ink and both hind legs with red ink, ensuring that the movements of the animals were as clear as possible. The sides of the runway consisted of cardboard, and the width was rationalized according to the weight and size of the rat. The room environment was kept quiet and the rats were placed on one side of the runway and allowed to pass freely. Before the start of the experiment, the rats were given two consecutive days of behavioral acclimatization training.

[3] = test system: LPS-stimulated RAW264.7 cells; test: ELISA quantification of PGE2; type: cell-based, mouse; conditions: 400 µM, 6 h, 12 h, n = 3
Description: Figure 4 COX-2 inhibition of NpxFFK. (A) molecular docking of COX-2 (PDB ID: 6COX) with NpxFFK. (B) Binding of NpxFFK with amino acid residues in the active pocket of COX-2. (C) Schematic representation of the anti-inflammatory mechanism of Npx and the peptide NpxFFK. […] Scale bars represent 200 µm. […] The blank groups in panel D-G referred to the RAW264.7 cells without stimulation of LPS.

[4] = DPPH free radical scavenging test; conditions: PBS (pH 7.2), 400 µM, 2 h, 25 °C, absorbance 517 nm, n = 3
Procedure: (§1) DPPH free radical scavenging test
(§2) DPPH (2, 2-Diphenyl -1-[…]) radical solution (0.58 mg/mL) was prepared by dissolving DPPH radical in anhydrous ethanol. Briefly, 6mg of […]
(§3) solution which were then incubated in dark for 2 h at 25°C. The absorbance of the mixed solution at 517 nm was measured using an enzyme-labeled instrument. The scavenging ability was calculated as DPPH free radical scavenging rate (%) = [(A0-A1)/A0] × 100%, where A0 is the absorbance of DPPH free radical solution, A1 is the absorbance of sample group. The experiment was repeated three times for each sample.
(§4) ABTS·+ free radical scavenging test […]
(§5) free radical solution, and then incubated at 25 °C for 30 mins in dark. The absorbance at 734 nm was measured using an enzyme-labeled instrument.
(§6) ABTS+ free radical scavenging activity is calculated according to the following formula: ABTS+ free radical scavenging rate (%) = [(A0-A1)/A0] × 100%, where A0 is the absorbance of ABTS+ free radical solution, and A1 is the absorbance of sample group. […]
(§7) Figure S14. Quantitative analysis of immunofluorescent staining of macrophages in Figure 5A and 5B. […]
(§8) Figure S16. Quantitative analysis of ROS fluorescent intensities (A) in Figure 5D, and fluorescent ratio of JC-1 in aggregate to monomer (B) in Figure 5E. […]

[5] = ABTS+ free radical scavenging test; conditions: PBS (pH 7.2), 400 µM, 30 mins, 25 °C, absorbance 734 nm, n = 3
Procedure: as §1, §2, §3, §4, §5, §6, §7, §8

[6] = test system: OA rat model; test: Immunofluorescence and immunohistochemistry of joint sections in OA rats; type: in vivo, SD rats; conditions: 100 mg/kg IA, 4 weeks
Procedure: The knee joints were fixed in 4% paraformaldehyde, decalcified for 4 weeks, and embedded in paraffin for histological evaluation. Subsequently, the samples were sectioned and stained with hematoxylin and eosin (H&E) as well as […]/Fast Green. An enhanced Mankin scoring system was used to assess the pathologic status of the knee joint. Sections were incubated overnight at 4 °C with primary antibodies and further stained with a fluorescently labeled secondary antibody or 3,3'-diaminobenzidine (DAB)-tagged secondary antibody for immunohistochemical analysis.

[7] = test system: C28/I2 chondrocytes; test: Chondrocyte proliferation (Calcein-AM staining and MTT quantification); type: cell-based, human; conditions: C28/I2 chondrocytes, 1, 2 and 3 days, compared to non-treated control
[8] = Zeta potential measurements; type: physicochemical; conditions: 400 µM; pH:7.2 (Figure 2F legend), text says physiological pH 7.4
Description: Scale bars represent 200 nm.
Under physiological conditions, glutamic acid carries a negative charge, while histidine, lysine, and arginine carry positive charges.

[9] = TEM imaging of assemblies; type: physicochemical; conditions: TEM images
Procedure: (C) FTIR spectra of NpxFFR (light green), NpxFFK (orange), NpxFFH (dark green), NpxFFE (purple) and Npx (medium spring green). (D) Hydrogel formation of Npx-peptide conjugates at 20 mg/mL concentration in ddH2O. […] (F) Zeta potential measurements of 400 µM Npx-peptide conjugates at pH:7.2. (G) TEM images of Npx and Npx-peptide conjugates. Scale bars represent 200 nm.

Zeta Potential [8]: -20.3 mV
Morphology of assemblies (TEM) [9]: uneven aggregates
SMILES: COc1ccc2cc([C@H](C)C(=O)O)ccc2c1 [Npx, naproxen]
COX-2 expression at gene level and protein level [1]: downregulated COX-2 expression
Stride length ([2]; sham 12.83 cm, saline 7.57 cm): 9.42 cm
Hindpaw contact area ([2]; versus sham and saline): partial improvement
PGE2 production [3]: reduced PGE2 production
DPPH radical scavenging activity [4]: neglectable radical scavenge activity
ABTS+ radical scavenging activity [5]: neglectable radical scavenge activity
Expression of COX-2, TNF-α and IL-1β in joint sections [6]: significantly reduced the expression of COX-2
Effect on chondrocyte proliferation [7]: the proliferation decreased over time
